The assay concerns phosphorylation of Histone H3 in HeLa cells. Briefly: HeLa cell 1-hour phospho-histone assay. Type of assay: cell-based. The note with it: Homo sapiens, % of cells pHH3 positive, read-out: inhibitory activity (EC50) in the phospho-histone H3 assay. On the procedure: HeLa Cell 1-Hour Phospho-Histone Assay
The purpose of this assay is to test the inhibitory effect of Aurora compounds with respect to phosphorylation of Histone H3 in the cellular context. HeLa cells (9×10^4/well) are plated in black 96-well flat-bottom tissue culture plates and incubated for 40 hours prior to compound addition. Compounds are serially diluted in DMSO, followed by dilution into MEM containing 10 mM HEPES; 10 ul/well of diluted compounds are added to cells (0.5% DMSO final). Cells are incubated for 1 hour at 37° C. in 5% CO2. Cells are then fixed with 3.7% formaldehyde for 10 minutes, washed with wash buffer (1% goat serum and 0.1% Tween 20 in PBS), then permeabilized with 0.5% Triton X in PBS for 15 minutes. After washing with wash buffer, cells are incubated with primary antibody (Upstate #06-507 anti-phospho-histone (Ser 10) antibody (pHH3) for 1 hour at 10 ug/ml. After 2 washes with wash buffer, cells are incubated with secondary antibody (Molecular Probes #A11034 goat anti-rabbit Alexa-488 for 1 hour at 1 ug/ml+Hoechst 33342 nuclear dye at 1 ug/ml (Molecular Probes). Cells are washed 2 times with wash buffer, and buffer replaced with PBS. Plates are scanned on the Cellomics Array Scan (6 fields, ˜2000 cells/well) and % of cells that are pHH3 positive were calculated using the Cellomics algorithm.

Like-named read-outs stand apart in the source and are kept apart here.

As for `CNc1nccc(-c2cccnc2Oc2ccc(Nc3nnc(-c4ccccc4)c4c3CCCC4)cc2)n1` [Example 123, N-(4-((3-(2-(methylamino)-4-pyrimidinyl)-2-pyridinyl)oxy)phenyl)-4-phenyl-5,6,7,8-tetrahydro-1-phthalazinamine], the half-maximal effective concentration (EC50) (usually the concentration needed to bring the measured effect to its halfway point) was less than 10000 nM. In addition, the 50% effective concentration (EC50) (unit inferred) was less than 1000 nM. On to `CNc1nccc(-c2cccnc2Oc2ccc(Nc3nnc(-c4ccccc4)c4c3C3CCC4CC3)cc2)n1` [Example 107, N-(4-((3-(2-(methylamino)-4-pyrimidinyl)-2-pyridinyl)oxy)phenyl)-6-phenyl-4,5-diazatricyclo [6.2.2.0~2,7~]dodeca-2,4,6-trien-3-amine], for which, where the note is “unit inferred”, the EC50 is less than 1000 nM. Take `CNc1nccc(-c2cccnc2Oc2ccc(Nc3nnc(-c4cc(C)cs4)c4c3CCC4)cc2)n1` [Example 122, N-(4-((3-(2-(methylamino)-4-pyrimidinyl)-2-pyridinyl)oxy)phenyl)-4-(4-methyl-2-thienyl)-6,7-dihydro-5H-cyclopenta[d] pyridazin-1-amine]: the EC50 is less than 10000 nM. Also, the EC50 (unit inferred) was less than 1000 nM.

The values above are taken from patent publication US8686155B2, “Aurora kinase modulators and method of use” (Amgen Inc., priority 2006, dated 2014).
